# Experimental data published in patent publication US20120190743A1, “COMPOUNDS FOR TREATING DISORDERS OR DISEASES ASSOCIATED WITH NEUROKININ 2 RECEPTOR ACTIVITY” (UNITED PARAGON ASSOCIATES INC., priority 2009, published 2012).
# Assays:
# human NK2 receptor [1] = target: T1, human NK2 receptor (Homo sapiens, UniProt P21452); assay: [125I]neurokinin A radioligand binding assay, CHO cells expressing recombinant human NK2 receptor; conditions: various concentrations
# T1 construct: expressed in transfected cells; host or cells: Chinese Hamster Ovary (CHO) cells
# T1 sequence (P21452 1-398): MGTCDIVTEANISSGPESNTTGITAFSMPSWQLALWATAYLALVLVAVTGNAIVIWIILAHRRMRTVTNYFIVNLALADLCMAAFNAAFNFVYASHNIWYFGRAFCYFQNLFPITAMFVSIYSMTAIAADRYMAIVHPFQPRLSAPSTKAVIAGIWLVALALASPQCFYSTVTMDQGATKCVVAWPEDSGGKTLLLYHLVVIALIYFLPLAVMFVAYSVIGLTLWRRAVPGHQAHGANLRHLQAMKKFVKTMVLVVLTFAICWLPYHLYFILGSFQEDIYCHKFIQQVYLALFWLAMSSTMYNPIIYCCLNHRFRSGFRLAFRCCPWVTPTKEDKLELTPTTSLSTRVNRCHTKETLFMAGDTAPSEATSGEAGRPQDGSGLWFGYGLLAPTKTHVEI
# Protocol: The contents of Formulation A capsules were dissolved using various solvents and extracted using four different processes, as described in detail below. […] These isolates were called: Sample #19 Top Isolate, Sample #19 Bottom Isolate, Sample #20 Top Isolate, Sample #20 Bottom Isolate, Fraction X Isolate and Sample #2 Isolate. These isolates were then each tested in the radioligand binding assay.
# human NK2 receptor [2] = target: T1, human NK2 receptor; assay: Cellular/functional Ca2+ flux antagonist assay, CHO-K1 cells expressing recombinant human NK2 receptor; type: cell-based; conditions: 3×10^−7 M to 1×10^−4 M, agonist [bAla]-NKA (4-10) 0.3 nM, FIG. 12
# Protocol: 6-methyl-myristic acid 2,3-dihydroxypropyl ester was synthesized as described above, and myristic acid 2,3-dihydroxypropyl ester was obtained. They were each prepared as solutions by addition of dimethyl sulfoxide (DMSO) to a concentration of 10 mM. These compounds were then used in cellular/functional calcium flux agonist and antagonist assays to determine the effect the compounds have on human NK2 receptor activity as measured by changes intracellular calcium measurements. These assays were carried out based on the method of Gerard et al.
# The NK2 receptor antagonist assay was performed essentially as follows. CHO-K1 cells stably expressing recombinant human NK2 receptor were plated on mixed extracellular matrix overnight in complete media. One hour before the assay, the media was replaced with Hank's Buffered Salt Solution (HBSS) containing 0.1% bovine serum albumin. The cells were then loaded with dye that measures intracellular calcium and baseline measurements of intracellular calcium were taken. […] Fluorescence at 485 nm excitation/515 nm emission was measured every 2 seconds for at least two minutes. The peak height of fluorescence in each of the wells receiving controls, compound 2 or compound 3 was recorded and compared to the peak height of fluorescence in the wells receiving only the agonist. […]
SMILES,effect on neurokinin A binding to the NK2 receptor (in words) (human NK2 receptor [1]),antagonist activity in functional NK2 receptor antagonist assay (in words) (human NK2 receptor [2])
"CCCCCCCCC(C)CCCCC(=O)OCC(O)CO (stereo not shown) [6-methyl-myristic acid 2,3-dihydroxypropyl ester]",inhibited the ability of neurokinin A to bind the NK2 receptor in a concentration-dependent manner,displayed antagonist activity
"CCCCCCCCCCCCCC(=O)OCC(O)CO (stereo not shown) [myristic acid 2,3-dihydroxypropyl ester]",inhibited the ability of neurokinin A to bind the NK2 receptor,displayed antagonist activity
